≈ marks a conversion by molar mass, not a printed value.
Tests used:
[1] = test system: Staphylococcus epidermidis; experiment: Antibacterial activity against Staphylococcus epidermidis 2D866 by two-fold agar dilution method; format: functional
[2] = test system: Mycobacterium tuberculosis; experiment: Antitubercular activity against Mycobacterium tuberculosis H37Rv by microplate alamar blue assay; format: functional
[3] = Cytotoxicity against mouse RAW264.7 cells assessed as growth inhibition at 50 ug/ml after 72 hrs by MTT assay; format: cell-based; details: read-out: GI
[4] = test system: Mycobacterium tuberculosis; experiment: Antitubercular activity against Mycobacterium tuberculosis H37Rv ATCC 27294 after 28 days by two-fold agar dilution method; format: functional; details: H37Rv ATCC 27294, 672 h

Structure (SMILES) | inhibition at 72 h, 50 ug/ml [3] [%] | MIC [4] [µg/mL] | also measured
CCCCCC(=O)c1c(OC)c(Cl)c2oc3c(Cl)c(OC)c(Cl)c(O)c3c2c1O |  |  | MIC [1]: 0.39 µg/mL (≈ 0.845 µM)
CC(=O)C1=C(O)C=C2Oc3c(C(C)=O)c(O)c(C)c(O)c3C2(C)C1=O (stereo not drawn) |  |  | MIC [2]: 12.5 µg/mL (≈ 36.3 µM)
O=C(Cn1cc(C2(O)CCCC2)nn1)Nc1nc(-c2ccc3oc4ccccc4c3c2)cs1 | 22.2 | 12.5 (≈ 27.2 µM) | 
Cc1ccc(-c2cn(CC(=O)Nc3nc(-c4ccc5oc6ccccc6c5c4)cs3)nn2)cc1 |  | 50 (≈ 107 µM) | 
O=C(Cn1cc(-c2cc(C(F)(F)F)cc(C(F)(F)F)c2)nn1)Nc1nc(-c2ccc3oc4ccccc4c3c2)cs1 |  | 25 (≈ 42.6 µM) | 
CCCCCc1ccc(-c2cn(CC(=O)Nc3nc(-c4ccc5oc6ccccc6c5c4)cs3)nn2)cc1 |  | > 50 | 
O=C(Cn1cc(CCc2ccccc2)nn1)Nc1nc(-c2ccc3oc4ccccc4c3c2)cs1 |  | > 50 | 
O=C(Cn1cc(-c2ccccc2)nn1)Nc1nc(-c2ccc3oc4ccccc4c3c2)cs1 | 20.4 | 3.12 (≈ 6.91 µM) | 
CCCc1cn(CC(=O)Nc2nc(-c3ccc4oc5ccccc5c4c3)cs2)nn1 |  | 50 (≈ 120 µM) | 
COc1cccc(-c2cn(CC(=O)Nc3nc(-c4ccc5oc6ccccc6c5c4)cs3)nn2)c1 | 18.1 | 6.25 (≈ 13 µM) | 
O=C(Cn1cc(-c2ccc(F)cc2F)nn1)Nc1nc(-c2ccc3oc4ccccc4c3c2)cs1 |  | 25 (≈ 51.3 µM) | 
CCCCCCc1cn(CC(=O)Nc2nc(-c3ccc4oc5ccccc5c4c3)cs2)nn1 | 28.6 | 1.56 (≈ 3.39 µM) | 
O=C(Cn1cc(C2CC2)nn1)Nc1nc(-c2ccc3oc4ccccc4c3c2)cs1 |  | 50 (≈ 120 µM) | 
CC(C)(C)c1ccc(-c2cn(CC(=O)Nc3nc(-c4ccc5oc6ccccc6c5c4)cs3)nn2)cc1 | 30.2 | 12.5 (≈ 24.6 µM) | 
CCCCCCCCCCCCc1cn(CC(=O)Nc2nc(-c3ccc4oc5ccccc5c4c3)cs2)nn1 | 26.5 | 3.12 (≈ 5.74 µM) | 
O=C(Cn1cc(CCCO)nn1)Nc1nc(-c2ccc3oc4ccccc4c3c2)cs1 |  | 25 (≈ 57.7 µM) | 
O=C(Cn1cc(-c2ccc(-c3ccccc3)cc2)nn1)Nc1nc(-c2ccc3oc4ccccc4c3c2)cs1 |  | > 50 | 
CCCCCc1cn(CC(=O)Nc2nc(-c3ccc4oc5ccccc5c4c3)cs2)nn1 | 20.4 | 12.5 (≈ 28.1 µM) | 
CC[C@@H](CO)NCCN[C@@H](CC)CO [ETHAMBUTOL] |  | 3.13 (≈ 15.3 µM) | 
NNC(=O)c1ccncc1 [ISONIAZID] |  | 0.1 (≈ 0.729 µM) | 
NC(=O)c1cnccn1 [PYRAZINAMIDE] |  | 50 (≈ 406 µM) | 

— ChEMBL document CHEMBL3822378, “Click-based synthesis and antitubercular evaluation of dibenzofuran tethered thiazolyl-1,2,3-triazolyl acetamides” (Bioorg Med Chem Lett, 2016)
